Laboratory results published in patent US6740500B1, “Method of screening for non-steroidal neuropsychiatric agents” (priority 2000, dated 2004).

Tests used:
[1] = tested on: γ-aminobutyric acid type A (GABAA) receptor; conditions: at low nanomolar concentrations; cited from earlier work
[2] = tested on: ALLO content in rat brain slices; experiment: ALLO content in vitro in rat brain slices; assay type: cell-based
Excerpt: Presumably, this effect was mediated via an inhibition of the oxidative function of the 3α-HSOR by the FGIN-1 drugs. Such an effect would lead to the accumulation of ALLO, since the reverse step—the reduction of 5α-DHP to ALLO was not affected by these compounds. Similar results were obtained in brain slices of ADX/CX rats.

[3] = tested on: socially isolated mice; experiment: Social-isolation stress mice: brain ALLO content and barbiturate-induced sleeping time; assay type: in vivo; conditions: single injection 2.6 μmol/Kg i.p.
[4] = tested on: ALLO in the cerebrospinal fluid (CSF); experiment: CSF neurosteroid content in patients with unipolar major depression after SSRI treatment; assay type: in vivo, human; conditions: 8-10 weeks of treatment
[5] = tested on: brain ALLO content; experiment: Brain ALLO content after fluoxetine in normal and ADX/CX male rats; assay type: in vivo, rat

## CC(=O)[C@H]1CC[C@H]2[C@@H]3CC[C@H]4C[C@H](O)CC[C@]4(C)[C@H]3CC[C@]12C [ALLO, 5α-pregnan-3α-ol-20-one]
[1]
  modulation of GABAA receptor function: positively modulates

## CNCCC(Oc1ccc(C(F)(F)F)cc1)c1ccccc1 (centres unmarked) [fluoxetine]
[2]
  ALLO content in rat brain slices: could increase ALLO content
[3]; group-housed mice
  brain content of ALLO and barbiturate-sleeping time: without altering
[3]; socially isolated mice
  barbiturate-sleeping time: normalized
  brain content of ALLO: normalized
[4]
  concentration of ALLO in CSF: significantly increased
[5]; 5-20 mg/kg, i.p., normal and ADX/CX male rats
  increase of brain ALLO content: 2-3 fold
[5]; ADX/CX rats, increase from 2 pmol/g
  brain ALLO content after fluoxetine: 8 pmol/g
[5]; also after protracted fluoxetine treatment
  dose and time dependence of effect on brain ALLO content: dose- and time-dependent
[5]; normal rats, increase from 3 pmol/g tissue
  brain ALLO content after fluoxetine: 9 pmol/g tissue
[5]; rat brain regions
  brain region specificity of ALLO increase: most pronounced ALLO increase occurring in the olfactory bulb, cortex, and hippocampus
